# In the supplement of paper PMC10307832:
# Assays:
# Test in all cases: relative viability (nuclei count vs DMSO), 5 days (fraction); higher = more cells survive
# Bromopyruvate + OSI-027 = compound: C(C(=O)C(=O)O)Br [Bromopyruvate] + COc1cccc2cc(-c3nc([C@H]4CC[C@H](C(=O)O)CC4)n4ncnc(N)c34)[nH]c12 [OSI-027] (partner 0.5 µM)
# In short: (§1)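 Lung cancer cell lines were pin-tool dosed in 1536-well plates on the day after seeding, with either a lone drug or a fixed anchor-drug dose plus five library-drug doses (not always all listed) in √10 steps. Nuclei were counted on 4× images after 5 days. Relative viability is the ratio of treated-well to vehicle-well nuclei counts, with each value a median of duplicate plates.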
# [1] = compound: C(C(=O)C(=O)O)Br [Bromopyruvate] + C[C@@H](Oc1cc(-c2cnn(C3CCNCC3)c2)cnc1N)c1c(Cl)ccc(F)c1Cl [Crizotinib] (partner 1 µM)
# In short: as §1
# [2] = compound: C(C(=O)C(=O)O)Br [Bromopyruvate] + Nc1ncn([C@H]2C[C@H](O)[C@@H](CO)O2)c(=O)n1 [Decitabine] (partner 2 µM)
# In short: as §1
# Bicalutamide + OSI-027 = compound: CC(O)(CS(=O)(=O)c1ccc(F)cc1)C(=O)Nc1ccc(C#N)c(C(F)(F)F)c1 [Bicalutamide] + COc1cccc2cc(-c3nc([C@H]4CC[C@H](C(=O)O)CC4)n4ncnc(N)c34)[nH]c12 [OSI-027] (partner 0.5 µM)
# In short: as §1
Cell Line,relative viability (Bromopyruvate + OSI-027; first compound 1 µM),relative viability (Bromopyruvate + OSI-027; first compound 3.162 µM),relative viability (Bromopyruvate + OSI-027; first compound 10 µM),relative viability (Bromopyruvate + OSI-027; first compound 31.62 µM),relative viability (Bromopyruvate + OSI-027; first compound 100 µM),relative viability ([1]; first compound 1 µM),relative viability ([1]; first compound 3.162 µM),relative viability ([1]; first compound 10 µM),relative viability ([1]; first compound 31.62 µM),relative viability ([1]; first compound 100 µM),relative viability ([2]; first compound 1 µM),relative viability ([2]; first compound 3.162 µM),relative viability ([2]; first compound 10 µM),relative viability ([2]; first compound 31.62 µM),relative viability ([2]; first compound 100 µM),relative viability (Bicalutamide + OSI-027; first compound 0.08 µM),relative viability (Bicalutamide + OSI-027; first compound 0.253 µM),relative viability (Bicalutamide + OSI-027; first compound 0.8 µM),relative viability (Bicalutamide + OSI-027; first compound 2.53 µM)
SK-LU-1,0.378,0.316,0.303,0.317,0.305,1.05,0.99,0.831,0.856,0.794,0.704,0.606,0.56,0.597,0.623,0.371,0.39,0.358,0.276
LXF-289,0.809,0.851,0.8,0.847,0.914,0.841,0.807,0.786,0.791,0.833,0.398,0.417,0.419,0.388,0.397,0.816,0.725,0.851,0.672
PC-3 [JPC-3],0.814,0.77,0.709,0.783,0.735,1.03,1,0.944,1.01,0.983,0.866,–,0.91,–,0.738,0.797,0.808,0.768,0.737
NCI-H661,0.719,0.67,0.685,0.64,0.749,1.05,0.897,0.854,1.12,1.11,0.505,0.571,0.654,0.546,0.523,0.719,0.691,0.839,0.699
NCI-H1666,0.913,0.881,0.836,0.923,0.854,0.993,0.907,0.963,1.18,0.857,0.679,0.738,0.835,0.66,0.705,0.911,0.866,0.916,0.831
NCI-H2087,0.55,0.612,0.637,0.542,0.462,0.9,0.957,0.661,0.78,0.78,0.307,0.318,0.248,0.305,0.259,0.598,0.512,0.579,0.572
NCI-H1734,0.599,0.611,0.731,0.562,0.595,0.67,0.68,0.803,0.67,0.659,0.505,0.507,0.629,0.502,0.457,0.66,0.473,0.614,0.488
EMC-BAC-2,0.384,0.382,0.397,0.397,0.405,0.611,0.723,0.798,0.788,0.756,0.918,1.04,1,–,0.921,0.404,0.374,0.364,0.246
NCI-H2009,0.6,0.66,0.669,0.545,0.305,1.05,1.1,1.03,0.921,0.724,0.352,0.42,0.336,0.349,0.261,0.756,0.641,0.74,0.347
NCI-H596,0.781,0.711,0.84,0.684,0.781,0.98,1,1.07,0.952,1.17,1.64,1.11,0.974,1.05,1.03,0.854,0.659,0.845,0.763
NCI-H650,0.584,0.545,0.575,0.501,0.59,0.7,0.721,0.678,0.634,0.711,0.295,0.322,0.316,0.281,0.26,0.559,0.507,0.524,0.432
NCI-H1792,0.798,0.79,0.782,–,0.649,1.11,1.03,1.09,0.878,0.984,0.57,0.614,0.45,0.498,0.555,0.731,0.634,0.855,0.768
SW 1573,0.751,0.674,0.73,0.475,0.0547,1.02,0.815,0.76,0.803,0.57,0.498,0.574,0.534,0.304,0.0598,0.629,–,0.734,0.656
ChaGo-K-1,0.715,0.521,0.629,0.578,0.493,1.09,1.14,1.17,1.1,1.17,0.554,0.525,0.609,0.529,0.486,0.566,0.48,0.631,0.516
NCI-H1650,0.642,0.592,0.669,0.757,0.464,0.898,1.24,0.942,0.922,0.56,0.448,0.393,0.462,0.454,0.266,0.71,0.552,0.744,0.649
NCI-H2023,0.391,0.39,0.49,0.388,0.374,0.685,0.658,0.618,0.785,0.542,0.221,0.205,0.29,0.229,0.194,0.44,0.338,0.427,0.271
LOU-NH91,0.804,0.716,0.747,0.694,0.756,0.769,0.708,0.712,0.76,0.724,0.868,0.79,0.799,0.876,0.861,0.768,0.659,0.736,0.726
